From US11382867B2, “Apomorphine-palmitic acid cocrystal solid particle crystalline form” (LEUKOS BIOTECH, S. L., priority 2018, dated 2022)
Where a name gives a salt, the structure may show the parent alone.

Key:
[1] = format: physicochemical; conditions: 40±2° C./75±5% RH, 1 week
[2] = In vivo comparative pharmacokinetic and tolerance study, subcutaneous administration; conditions: rats
Experimental: Apomorphine Hydrochloride (Apo-HCl) was administered subcutaneously to Sprague Dawley rats three times a day for six days (total of eighteen 0.1-mL administrations). Both test items were compared for tolerance and systemic exposure: blood samples were collected from the lateral vein of the tail from all animals on treatment days 1 and 5 at all groups from main animals, samples were analyzed for apomorphine level determination.

Solubility in water = format: physicochemical; conditions: water at RT
Experimental: Water was progressively added at RT to APO HCl (I) until complete dissolution was reached. Subsequently, the same volume of water was added at RT to the other salts in order to compare their solubility. The mixtures were stirred for 10-15 minutes to allow equilibration. As the salts remained insoluble, the suspensions were diluted with twice the original volume and allowed to equilibrate for another 10-15 minutes at RT.

## CCCCCCCCCCCCCCCC(=O)O.CCCCCCCCCCCCCCCC(=O)O.CN1CCc2cccc3c2[C@H]1Cc1ccc(O)c(O)c1-3 [Form O, Apo-Palmitic Acid (1:2)]
[1]
  stability: remained stable
[2]
  Apomorphine levels in blood (PK profile): Sustained Apomorphine levels
[2]; compared with Apo-HCl
  AUC: higher than Apo-HCl
  Cmax: lower than Apo-HCl

## CN1CCc2cccc3c2[C@H]1Cc1ccc(O)c(O)c1-3 [APO HCl (I), Apomorphine hydrochloride]
Solubility in water
  solubility in water: soluble in water
Solubility in water; 10-15 minutes equilibration
  volume of water for dissolution: 54 V
[2]
  Apomorphine levels in blood (PK profile): rapid decrease of Apomorphine levels
